Where no end group is shown, it is not given here. [ ]: non-standard residue; d: D form. Dmt = Cc1cc(O)cc(C)c1C[C@H](N)C(=O)O
Legend:
equine sperm = details: Vidament et al, 2005; cited from earlier work
bull sperm [1] = experiment: Motility of fresh bull sperm after exposure to cell penetrating peptides, CASA (Example 8); format: cell-based; details: CPPs added at 37° C., FIG. 13
Method: Semen was collected from four bulls using electro-ejaculator. Semen was analyzed with Computer Assisted Semen Analysis (CASA) and washed (2×) with tris citric acid buffer (TB). The washed semen was diluted to 2.2 million/ml with TB. Semen (46 μl) was mixed with 4 μl of 100 μM solution of SS31 or mTP4. TB buffer alone was added in the control sample. […] After incubation, sperm motility was analyzed by CASA and then cells were treated with 2.5 μl propidium iodide (50 μg/ml) or 3 μl SYBR-14. Sperm were fixed with 10 μl of 10%-formaldehyde and another 500 μl PBS was added before flowcytometry analysis.

bull sperm [2] = experiment: Frozen-thaw longevity of bull sperm with cell penetrating peptides, CASA at 0, 2 and 4 hrs (Example 8); format: cell-based
Method: Semen was collected from four beef bulls using electro-ejaculator. Immediately after collection, 0.5 μM SS31 or mTP4 was added per ml semen. Concentration of up to 20 μM SS31 or mTP4 were also used. Semen transported to Cryobiology Lab where semen was analyzed with CASA. Semen was further diluted with egg yolk extender to 50 million per ml, packaged in straws and frozen following a freezing curve developed in our lab. Frozen semen with and without SS31 was thawed and CASA analysis was conducted at 0 (<15 min), 2 and 4 hrs. Structural characters, i.e. plasma membrane and acrosome, were also analyzed using FITC-PNA and PI assay with flow cytometer, as described in Examples 4 and 5.

Molecule	concentration in a preservation medium reported to be toxic to equine sperm (equine sperm)	sperm motility and progressive motility as compared control (bull sperm [1])	Percent decline motility over time (bull sperm [2]; 4 hr post-thaw, vs control and mTP4 groups, FIG. 15)	post-thaw total sperm motility and progressive motility vs control (bull sperm [2]; semen frozen in egg yolk extender, 0, 2 and 4 hrs post-thaw, FIG. 14)
OCC(O)CO [Glycerol, glycerol]	greater than 3.5%			
D-Arg-DMT-Lys-Phe [SS31]		improved	lesser	better
DMT-D-MWWRRSRTNSLRYT ([Dmt][dM]WWRRSRTNSLRYT) [mTP4]		improved		
